Measurements taken from patent US11339203B2, “Antitumor peptide and use thereof” (TOAGOSEI CO., LTD., priority 2018, dated 2022).
Where two headings read alike, the source gives them in different places. Where no end group is shown, it is not given here.

Assays:
[1] = system: human kidney cancer cell line (CAKI2); type: cell-based; settings: human, 48 h
Experimental: The antitumor activity of each sample peptide synthesized in above-mentioned Test Example 1 was evaluated targeted in human-derived cultured tumor cells. More specifically, a human kidney cancer cell line (CAKI2) that is currently commercially available was used for the test tumor cells. CAKI2 cells were cultured and adjusted to cell count of about 5×10^3 cells per single well of 96-well plate. The amount of medium at this time was made to be 100 μL per well. Next, the 96-well plate was arranged in a CO2 incubator and incubated for about 1 day (21 hours to 24 hours) under conditions of 37° C. and 5% CO2. Subsequently, peptide-containing test media were respectively prepared for each concentration so that the concentration of each sample peptide targeted for evaluation was 12.5 μM and 25 μM followed by supplying to the wells in which the cells targeted for evaluation were cultured (namely, the wells following the above-mentioned incubation) so that the amount of media was 90 μL per well. The 96-well plate was then returned to CO2 incubator followed by incubating for 48 hours under conditions of 37° C. and 5% CO2. The number of wells (n) at each concentration in each peptide addition test group was set to 3. Thus, the values of the results indicated in the following table are the average values of the results respectively obtained for 3 test wells. Cell viability (%) was determined in the manner described below. Following completion of incubation for 48 hours as described above, the medium in each well was replaced with 100 μL of fresh medium not containing peptide followed by further adding a reagent for measuring cell proliferation in the form of “Cell Counting Kit-8” (Dojindo Laboratories) containing “water-soluble tetrazolium salt (WST-8)” as a coloring reagent at 10 μL per well. Subsequently, the 96-well plate was again returned to CO2 incubator and incubated for 1.5 hours to 2 hours under conditions of 37° C. and 5% CO2. Following completion of incubation, cell viability (%) was evaluated using a colorimetric method consisting of recovering the cell culture liquid containing the above-mentioned reagent together with measuring absorbance at wavelength of 450 nm based on reduction of tetrazolium salt (value corrected for absorbance at a wavelength of 650 nm: A450 to A650). More specifically, the cell viability (%) of each test cell line was calculated from the measured absorbance as a relative value based on cell viability of 100% for the measured value (measured absorbance) of the comparison test group that underwent incubation for 48 hours as described above in only medium not containing peptide. McCoy's 5A medium (Gibco) containing 2 mM L-glutamine, 3,000 mg/L of glucose, 100 units/mL of penicillin, 100 μg/mL of streptomycin and 10% fetal bovine serum (FBS).

tumor cells = experiment: Antitumor activity of the TM2-TAT peptide (data not shown); type: cell-based; settings: detailed data not shown

Row | Compound | Cell Viability (%) ([1]; 12.5 μM) | Cell Viability (%) ([1]; 25 μM) | antitumor activity (tumor cells)
1 | WFLREGSMFVALSASVFSLLAIKKRTLRKNDRKKR-NH2 [Sample 3] | 68% | 45.8% | –
2 | LFRAEYFLVLAVLNSGTNPIIKKRTLRKNDRKKR-NH2 [Sample 7] | 98.9% | 66.3% | –
3 | SEQ ID NO: 33: synthetic peptide binding SEQ ID NO: 23 (TAT sequence of HIV) to the C-terminal side of SEQ ID NO: 2 (S1PR1 second TM region) (FIGNLALSDLLAGVAYTANLLLRKKRRQRRR) | – | – | demonstrated antitumor activity
4 | VIIVLSVFIACWAPLFILLLLKKRTLRKNDRKKR-NH2 [Sample 6] | 69.3% | 59.7% | –
5 | FLLISACWVISLILGGLPIMGWKKRTLRKNDRKKR-NH2 [Sample 4] | 70.6% | 85.6% | –
6 | CC[C@H](C)[C@H](NC(=O)[C@H](CCCNC(=N)N)NC(=O)[C@H](CS)NC(=O)[C@H](Cc1ccc(O)cc1)NC(=O)[C@H](CC(C)C)NC(=O)[C@@H](NC(=O)[C@@H](NC(=O)[C@@H](NC(=O)[C@H](CO)NC(=O)[C@H](CC(C)C)NC(=O)[C@H](CC(C)C)NC(=O)[C@H](CC(C)C)NC(=O)[C@H](CC(C)C)NC(=O)[C@@H](NC(=O)[C@H](Cc1ccccc1)NC(=O)[C@@H](NC(=O)[C@@H](NC(=O)[C@@H](NC(=O)[C@H](CS)NC(=O)[C@H](Cc1ccccc1)NC(=O)[C@H](CC(C)C)NC(=O)[C@@H](NC(=O)[C@H](Cc1ccc(O)cc1)NC(=O)[C@H](Cc1c[nH]cn1)NC(=O)[C@H](CCCCN)NC(=O)[C@H](Cc1c[nH]cn1)NC(=O)[C@H](Cc1ccc(O)cc1)NC(=O)[C@@H](N)CC(C)C)[C@@H](C)CC)[C@@H](C)O)[C@@H](C)O)C(C)C)[C@@H](C)O)[C@@H](C)CC)C(C)C)[C@@H](C)CC)C(=O)N[C@@H](CCCCN)C(=O)N[C@@H](CCCCN)C(=O)N[C@@H](CCCNC(=N)N)C(=O)N[C@H](C(=O)N[C@@H](CC(C)C)C(=O)N[C@@H](CCCNC(=N)N)C(=O)N[C@@H](CCCCN)C(=O)N[C@@H](CC(N)=O)C(=O)N[C@@H](CC(=O)O)C(=O)N[C@@H](CCCNC(=N)N)C(=O)N[C@@H](CCCCN)C(=O)N[C@@H](CCCCN)C(=O)N[C@@H](CCCNC(=N)N)C(N)=O)[C@@H](C)O [Sample 5] | 73.3% | 77.6% | –
